Common to all, as to type: cell-based, mouse
Assay [1] deals with Bone-marrow-derived macrophages. Briefly: IL-10 secretion (BIOPLEX) in LPS-stimulated macrophages. The conditions noted are these: 10 μM; LPS-stimulated. How it is done:
The concentration of TNFα, IL-6, IL-10 and IL-12p40 in cell-free culture supernatants were measured using the Bio-Plex Pro Assay system (Bio-Rad).

The test system is the same in assay [2]. Nature of the assay: TLR signalling immunoblots (MAPKs, MSK1/2, CREB, IKKs, TBK1). Particulars: 3 μM bosutinib, 0.3 μM dasatinib or 0.5 μM HG-9-91-01. In general terms: In western blotting, separated proteins are transferred to a membrane and probed.
Description: RAW264.7 cells were cultured in DMEM containing 10% FBS, 2 mM glutamine and penicillin and streptomycin. […] Cells were treated for 1 h with or without inhibitors and then stimulated for up to 24 h with either 1 μg/ml Pam3CSK4 or 100 ng/ml LPS.
Cells were extracted in lysis buffer [50 mM Tris/HCl, pH 7.4, 1 mM EDTA, 1 mM EGTA, 50 mM NaF, 5 mM sodium pyrophosphate, 10 mM sodium β-glycerol 1-phosphate, 1 mM DTT, 1 mM sodium orthovanadate, 0.27 M sucrose, 1% (v/v) Triton X-100, 1 μg/ml aprotinin, 1 μg/ml leupeptin and 1 mM PMSF]. Cell extracts were clarified by centrifugation and protein concentrations were determined using the Bradford assay. To immunoprecipitate endogenous CRTC3, 1 mg of cell extract was incubated with 5 μg of anti-CRTC3 [13] covalently cross-linked on to Protein G–Sepharose. Immune complexes were washed three times with lysis buffer, eluted in 1% SDS and separated by SDS/PAGE. To detect proteins in cell lysates, 20 μg of protein extract was separated by SDS/PAGE. After transfer to PVDF membranes, proteins were detected by immunoblotting and visualized by treating the blots with ECL (GE Healthcare) followed by autoradiography.
Assay [3] shares this test system. Nature of the assay: CREB-dependent gene transcription (qPCR). The conditions noted are these: macrophages. How it is done:
mRNA was extracted from cells using the MicroElute Total RNA kit following the manufacturers’ instructions (Omega Bio-Tek). cDNA was generated from 0.5 μg of total RNA using the iScript cDNA synthesis kit and quantified by quantitative real-time PCR (qPCR) using the SsoFast EvaGreen Supermix on a CFX384 real-time system (Bio-Rad Laboratories). The relative expression of each gene was calculated from CT values using the Pfaffl method and was normalized against the mRNA levels of housekeeping genes including 18S RNA and GAPDH. Results are reported relative to untreated control cells, which were set to 1.
A general note: In qPCR the cycle at which signal appears reflects the starting amount.

Take `C#Cc1cccc(Nc2ncnc3cc(OCCOC)c(OCCOC)cc23)c1` [Erlotinib, erlotinib]: the IL-10 production entry in assay [1] was “failed to elevate IL-10 production”. Still for that read-out and setting: for `COc1cc2ncnc(Nc3ccc(F)c(Cl)c3)c2cc1OCCCN1CCOCC1` [Gefitinib, gefitinib] the value was “failed to elevate IL-10 production”. With `COc1ccc(N(C(=O)Nc2c(C)cccc2C)c2cc(Nc3ccc(N4CCN(C)CC4)cc3)ncn2)c(OC)c1` [HG-9-91-01], the “TLR-stimulated phosphorylation of ERK1/2, JNK1/2, p38α/β MAPKs, MSK1/2, IKKα/β, TBK1 and their direct substrates” value in assay [2] is recorded as “occurred normally”. Take `Cc1ccc(NC(=O)c2ccc(CN3CCN(C)CC3)cc2)cc1Nc1nccc(-c2cccnc2)n1` [Imatinib, imatinib]: the “CREB-dependent gene transcription and IL-10 production” value in assay [3] is “fail to induce CREB-dependent gene transcription and to elevate IL-10 production”. For the same compound, in assay [1], the IL-10 production result is “failed to elevate IL-10 production”. With `CS(=O)(=O)CCNCc1ccc(-c2ccc3ncnc(Nc4ccc(OCc5cccc(F)c5)c(Cl)c4)c3c2)o1` [Lapatinib, lapatinib], the IL-10 production result in assay [1] was “failed to elevate IL-10 production”.

`CCN(CC)CCNC(=O)c1c(C)[nH]c(/C=C2\C(=O)Nc3ccc(F)cc32)c1C` [Sunitinib, sunitinib]: the IL-10 production entry in assay [1] is “failed to elevate IL-10 production”. `COc1cc2/c(=N/c3ccc(Br)cc3F)nc[nH]c2cc1OCC1CCN(C)CC1` [Vandetinib, vandetinib]: the IL-10 production result in assay [1] is “failed to elevate IL-10 production”.
